This assay deals with recombinant HIV-2 protease. Description: In vitro inhibition of recombinant HIV-2 protease expressed in Escherichia coli strain X90.

As a reminder, the IC50 is the point on the concentration scale where inhibition reaches its midpoint. Consider `O=C(C=CC[N+]1([O-])CCC(O)(c2ccc(Cl)cc2)CC1)c1ccc(F)cc1` (stereo unspecified) [(E)-4-[4-(4-Chloro-phenyl)-4-hydroxy-1-oxy-piperidin-1-yl]-1-(4-fluoro-phenyl)-but-2-en-1-one], for which the IC50 came out at 40 µM.

The values above are taken from BindingDB's records for doi:10.1021/jm00031a017 (University of California, 1994).
